Data published in the NIST ThermoML archive (doi:10.1021/acs.jced.6b00526).

Experiment: xn = mol fraction of the nth substance listed
Conditions: 100 kPa, Liquid; for mass density: Vibrating tube method; for viscosity: Falling or rolling sphere viscometry

OCCO [1,2-ethanediol] + O
Conditions | mass density, 288.15 K [kg/m3] | mass density, 293.15 K [kg/m3] | mass density, 298.15 K [kg/m3] | mass density, 303.15 K [kg/m3] | mass density, 308.15 K [kg/m3] | mass density, 313.15 K [kg/m3] | mass density, 318.15 K [kg/m3] | viscosity, 293.15 K [mPa·s] | viscosity, 298.15 K [mPa·s] | viscosity, 303.15 K [mPa·s]
x2 = 0 | – | 1113.3 | – | 1106.8 | – | 1099.1 | – | 21.13 | 17.24 | 14.23
x2 = 0.1037 | 1114.7 | 1111.1 | 1108 | 1104.4 | 1100.5 | 1096.7 | 1093.8 | – | – | –
x2 = 0.1105 | – | – | – | – | – | – | – | 17.58 | 14.33 | 11.86
x2 = 0.1593 | 1113.6 | – | 1106.9 | – | 1099.3 | 1095.4 | 1092.4 | – | – | –
x2 = 0.2014 | – | – | – | – | – | – | – | 14.95 | 12.19 | 10.14
x2 = 0.2189 | 1111.9 | 1108.3 | 1105.2 | 1101.6 | 1097.6 | 1093.7 | 1090.7 | – | – | –
x2 = 0.2669 | – | 1106.8 | 1103.6 | 1100.1 | – | 1092.1 | – | – | – | –
x2 = 0.3002 | – | – | – | – | – | – | – | 12.4 | 10.18 | 8.45
x2 = 0.3165 | 1108.3 | 1104.8 | 1101.7 | 1098.2 | 1094.2 | 1090.3 | 1087.3 | – | – | –
x2 = 0.3496 | 1106.8 | – | 1100.3 | 1096.8 | 1092.9 | – | 1086 | – | – | –
x2 = 0.3994 | 1104.4 | 1101.1 | 1098 | 1094.4 | 1090.6 | 1086.9 | 1083.9 | – | – | –
x2 = 0.4011 | – | – | – | – | – | – | – | 10.05 | 8.31 | 6.968
x2 = 0.4449 | 1101.8 | 1098.5 | – | 1092.2 | 1088.4 | 1084.6 | 1081.6 | – | – | –
x2 = 0.4969 | – | – | – | – | – | – | – | 8.185 | 6.791 | 5.653
x2 = 0.5061 | 1098 | 1094.8 | 1091.8 | 1088.5 | 1084.7 | 1081.1 | 1078.1 | – | – | –
x2 = 0.5563 | 1094.5 | 1091.4 | 1088.4 | 1085.1 | 1081.3 | 1077.8 | 1074.6 | – | – | –
x2 = 0.6022 | – | – | – | – | – | – | – | 6.297 | 5.208 | 4.396
x2 = 0.6055 | 1090.6 | 1087.4 | 1084.5 | 1081.3 | 1077.6 | 1074 | 1071.1 | – | – | –
x2 = 0.6518 | 1085.7 | 1082.6 | 1079.7 | 1076.5 | 1072.9 | 1069.5 | 1066.3 | – | – | –
x2 = 0.6995 | – | – | – | – | – | – | – | 4.584 | 3.884 | 3.345
x2 = 0.7001 | 1079.8 | 1076.8 | 1073.7 | 1070.6 | 1067.3 | 1064 | 1060.7 | – | – | –
x2 = 0.7482 | 1072.6 | 1069.7 | 1066.7 | 1063.7 | 1060.6 | 1057.4 | 1054.3 | – | – | –
x2 = 0.7994 | – | – | – | – | – | – | – | 3.122 | 2.682 | 2.328
x2 = 0.8015 | 1063 | 1060.1 | 1057.4 | 1054.5 | 1051.5 | 1048.4 | 1045.6 | – | – | –
x2 = 0.8444 | 1052.6 | 1050.2 | 1048 | 1045.5 | 1042.6 | 1039.6 | 1037.1 | – | – | –
x2 = 0.8997 | – | – | – | – | – | – | – | 1.918 | 1.664 | 1.446
x2 = 0.901 | 1036.4 | 1034.6 | 1032.8 | 1030.7 | 1028 | 1025.4 | 1023.5 | – | – | –
